Series [1] deals with Recombinant Respiratory Syncytial virus strain A2 containing the firefly luciferase reporter (RSV-Fluc). The series can be described thus: microbe, parasite or virus in culture. The format is cell-based. The conditions noted are these: human respiratory syncytial virus, NHBE.
Another series concerns SARS-CoV-2. The series is described as follows: microbe, parasite or virus in culture. The format is cell-based.
The next series can be described thus: MT4 cytotoxicity (CC50). The following applies: human, MT4 cells.
Where [2] appears, read: 72 h, read-out: RSV-Fluc EC50 (NHBE), NHBE cells, three days, Table 2.
[3] abbreviates: Severe acute respiratory syndrome coronavirus 2, read-out: SARS EC50.

What is called EC50 is the concentration giving half of the maximal effect. The term CC50 denotes the concentration at which the toxic effect on the cells reaches its halfway point. Low values mean greater toxicity to the cells, high ones lower toxicity to the cells.

Like-named read-outs stand apart in the source and are kept apart here.

On to `CCCCCCCCCCCCCCCCCCOC[C@H](COP(=O)(O)OC[C@H]1O[C@@](C#N)(c2ccc3c(N)ncnn23)[C@H](O)[C@@H]1O)OC(C)c1ccccc1` (single isomer, unassigned) [Example 27], for which the EC50 came to 110 nM in series [1] (setting [2]); 113 nM in series [1] (read-out: RSV EC50, Table 2a); 2000 nM with SARS-CoV-2 (setting [3]). The same compound yielded a CC50 in the series “MT4 cytotoxicity (CC50)” (MT4 CC50, Table 2a) of 614 nM.

With `CCCCCCCCCCCCCCCCCOC[C@H](COP(=O)(O)OC[C@H]1O[C@@](C#N)(c2ccc3c(N)ncnn23)[C@H](O)[C@@H]1O)OCc1ccccc1` [Example 6, ((2R,3S,4R,5R)-5-(4-aminopyrrolo[2,1-f][1,2,4]triazin-7-yl)-5-cyano-3,4-dihydroxytetrahydrofuran-2-yl)methyl ((R)-2-(benzyloxy)-3-(heptadecyloxy)propyl) hydrogen phosphate], the EC50 in series [1] (72 h, read-out: RSV-Fluc EC50 (NHBE), NHBE cells, three days, Table 1) worked out at 80 nM; with SARS-CoV-2 (Severe acute respiratory syndrome coronavirus 2, 48 h, read-out: SARS-CoV-2 EC50) it was 950 nM. The CC50 in “MT4 cytotoxicity (CC50)” (MT4 CC50, Table 1a) was determined as 4150 nM.

On to `CCCCCCCCCCCCCCCCCCOC[C@H](COP(=O)(O)OC[C@H]1O[C@@](C#N)(c2ccc3c(N)ncnn23)[C@H](O)[C@@H]1O)OCc1cc(F)ccc1C#N` [Example 51, ((2R,3S,4R,5R)-5-(4-aminopyrrolo[2,1-f][1,2,4]triazin-7-yl)-5-cyano-3,4-dihydroxytetrahydrofuran-2-yl)methyl ((R)-2-((2-cyano-5-fluorobenzyl)oxy)-3-(octadecyloxy)propyl) hydrogen phosphate], for which, in the series with SARS-CoV-2 (setting [3]), the EC50 is 1650 nM. In the series “MT4 cytotoxicity (CC50)” (MT4 CC50, Table 2a), this compound registered a CC50 of 2140 nM.

In the case of `CCCCCCCCCCCCCCCCCCOC[C@H](COP(=O)(O)OC[C@H]1O[C@@](C#N)(c2ccc3c(N)ncnn23)[C@H](O)[C@@H]1O)OCc1cc(Cl)cc(C#N)c1` [Example 68, ((2R,3S,4R,5R)-5-(4-aminopyrrolo[2,1-f][1,2,4]triazin-7-yl)-5-cyano-3,4-dihydroxytetrahydrofuran-2-yl)methyl ((R)-2-((3-chloro-5-cyanobenzyl)oxy)-3-(octadecyloxy)propyl) hydrogen phosphate], the EC50 in series [1] (setting [2]) is 25 nM; in series [1] (read-out: RSV EC50, Table 2a) it was 25 nM; in the series on SARS-CoV-2 (setting [3]), 927 nM.

Regarding `CCCCCCCCCCCCCCCCCCOC[C@H](COP(=O)(O)OC[C@H]1O[C@@](C#N)(c2ccc3c(N)ncnn23)[C@H](O)[C@@H]1O)Oc1cncc(C#N)c1` [Example 84, ((2R,3S,4R,5R)-5-(4-aminopyrrolo[2,1-f][1,2,4]triazin-7-yl)-5-cyano-3,4-dihydroxytetrahydrofuran-2-yl)methyl ((R)-2-((5-cyanopyridin-3-yl)oxy)-3-(octadecyloxy)propyl) hydrogen phosphate], in series [1] (read-out: RSV EC50, Table 4), the EC50 came out at 7 nM. Also, the CC50 in the series “MT4 cytotoxicity (CC50)” (MT4 CC50, Table 4) worked out at 212 nM.

In the case of `CCCCCCCCCCCCCCCCCCOC[C@H](COP(=O)(O)OC[C@H]1O[C@@](C#N)(c2ccc3c(N)ncnn23)[C@H](O)[C@@H]1O)Oc1ccc(C#N)c(OCC)c1` [Example 85, ((2R,3S,4R,5R)-5-(4-aminopyrrolo[2,1-f][1,2,4]triazin-7-yl)-5-cyano-3,4-dihydroxytetrahydrofuran-2-yl)methyl ((R)-2-(4-cyano-3-ethoxyphenoxy)-3-(octadecyloxy)propyl) hydrogen phosphate], in series [1] (read-out: RSV EC50, Table 4), the concentration giving a half-maximal response (EC50) turned out to be 8 nM. Moreover, the midpoint of cytotoxicity in “MT4 cytotoxicity (CC50)” (MT4 CC50, Table 4), the CC50, lay at 143 nM.

For `CCCCCCCCCCCCCCCCCCOC[C@@H](CCc1cc(F)cc(C#N)c1)COP(=O)(O)OC[C@H]1O[C@@](C#N)(c2ccc3c(N)ncnn23)[C@H](O)[C@@H]1O` [Example 86, ((2R,3S,4R,5R)-5-(4-aminopyrrolo[2,1-f][1,2,4]triazin-7-yl)-5-cyano-3,4-dihydroxytetrahydrofuran-2-yl)methyl ((R)-4-(3-cyano-5-fluorophenyl)-2-((octadecyloxy)methyl)butyl) hydrogen phosphate], the EC50 in series [1] (read-out: RSV EC50, Table 4) came to 430 nM. The CC50 in “MT4 cytotoxicity (CC50)” (MT4 CC50, Table 4) is 22000 nM.

`CCCCCCCCCCCCCCCCCCOC[C@H](COP(=O)(O)OC[C@H]1O[C@@](C#N)(c2ccc3c(N)ncnn23)[C@H](O)[C@@H]1O)Oc1ccccc1` [Example 87, ((2R,3S,4R,5R)-5-(4-aminopyrrolo[2,1-f][1,2,4]triazin-7-yl)-5-cyano-3,4-dihydroxytetrahydrofuran-2-yl)methyl ((R)-3-(octadecyloxy)-2-phenoxypropyl) hydrogen phosphate] displayed a CC50 in “MT4 cytotoxicity (CC50)” (MT4 CC50, Table 4) of 3100 nM.

As to `CCCCCCCCCCCCCCCCCCOC[C@H](COP(=O)(O)OC[C@H]1O[C@@](C#N)(c2ccc3c(N)ncnn23)[C@H](O)[C@@H]1O)Oc1cccc(OC)n1` [Example 88, ((2R,3S,4R,5R)-5-(4-aminopyrrolo[2,1-f][1,2,4]triazin-7-yl)-5-cyano-3,4-dihydroxytetrahydrofuran-2-yl)methyl ((R)-2-((6-methoxypyridin-2-yl)oxy)-3-(octadecyloxy)propyl) hydrogen phosphate], the EC50 in series [1] (read-out: RSV EC50, Table 4) worked out at 31 nM. Besides, the CC50 in “MT4 cytotoxicity (CC50)” (MT4 CC50, Table 4) is 201 nM.

With `CCCCCCCCCCCCCCCCCCOC[C@H](COP(=O)(O)OC[C@H]1O[C@@](C#N)(c2ccc3c(N)ncnn23)[C@H](O)[C@@H]1O)Oc1ccc(OC)cn1` [Example 89, ((2R,3S,4R,5R)-5-(4-aminopyrrolo[2,1-f][1,2,4]triazin-7-yl)-5-cyano-3,4-dihydroxytetrahydrofuran-2-yl)methyl ((R)-2-((5-methoxypyridin-2-yl)oxy)-3-(octadecyloxy)propyl) hydrogen phosphate], the EC50 in series [1] (read-out: RSV EC50, Table 4) came out at 28 nM. For the same compound, the half-maximal cytotoxic concentration (CC50) in “MT4 cytotoxicity (CC50)” (MT4 CC50, Table 4) is 962 nM.

`CCCCCCCCCCCCCCCCCCOC[C@H](COP(=O)(O)OC[C@H]1O[C@@](C#N)(c2ccc3c(N)ncnn23)[C@H](O)[C@@H]1O)Oc1cc(OC)ccn1` [Example 90, ((2R,3S,4R,5R)-5-(4-aminopyrrolo[2,1-f][1,2,4]triazin-7-yl)-5-cyano-3,4-dihydroxytetrahydrofuran-2-yl)methyl ((R)-2-((4-methoxypyridin-2-yl)oxy)-3-(octadecyloxy)propyl) hydrogen phosphate]: the EC50 in series [1] (read-out: RSV EC50, Table 4) was 109 nM. In “MT4 cytotoxicity (CC50)” (MT4 CC50, Table 4), the CC50 was 383 nM.

For the compound `CCCCCCCCCCCCCCCCCCOC[C@H](COP(=O)(O)OC[C@H]1O[C@@](C#N)(c2ccc3c(N)ncnn23)[C@H](O)[C@@H]1O)Oc1ncccc1OC` [Example 91, ((2R,3S,4R,5R)-5-(4-aminopyrrolo[2,1-f][1,2,4]triazin-7-yl)-5-cyano-3,4-dihydroxytetrahydrofuran-2-yl)methyl ((R)-2-((3-methoxypyridin-2-yl)oxy)-3-(octadecyloxy)propyl) hydrogen phosphate], the EC50 in series [1] (read-out: RSV EC50, Table 4) turned out to be 46 nM. The CC50 in “MT4 cytotoxicity (CC50)” (MT4 CC50, Table 4) came to 454 nM.

Compound `CCCCCCCCCCCCCCCCCCOC[C@H](COP(=O)(O)OC[C@H]1O[C@@](C#N)(c2ccc3c(N)ncnn23)[C@H](O)[C@@H]1O)Oc1cc(C#N)ccn1` [Example 99, [(2R,3S,4R,5R)-5-(4-Aminopyrrolo[2,1-f][1,2,4]triazin-7-yl)-5-cyano-3,4-dihydroxy-tetrahydrofuran-2-yl]methyl [(2R)-2-[(4-cyano-2-pyridyl)oxy]-3-octadecoxy-propyl]hydrogen phosphate] had a CC50 in the series “MT4 cytotoxicity (CC50)” (MT4 CC50, Table 4) of 1780 nM.

On to `CCCCCCCCCCCCCCCCOC[C@H](COP(=O)(O)OC[C@H]1O[C@@](C#N)(c2ccc3c(N)ncnn23)[C@H](O)[C@@H]1O)OCc1ccc(F)c(C#N)c1` [Example 109, [(2R,3S,4R,5R)-5-(4-Aminopyrrolo[2,1-f][1,2,4]triazin-7-yl)-5-cyano-3,4-dihydroxy-tetrahydrofuran-2-yl]methyl [(2R)-2-[(3-cyano-4-fluoro-phenyl)methoxy]-3-hexadecoxy-propyl] hydrogen phosphate], for which the EC50 in series [1] (read-out: RSV EC50, Table 4) is 347 nM; in the series on SARS-CoV-2 (setting [3]), 1600 nM.

As for `CCCCCCCCCCCCCCCCCCOC[C@H](COP(=O)(O)OC[C@H]1O[C@@](C#N)(c2ccc3c(N)ncnn23)[C@H](O)[C@@H]1O)OCc1ccc(F)cc1` [Example 110, [(2R,3S,4R,5R)-5-(4-Aminopyrrolo[2,1-f][1,2,4]triazin-7-yl)-5-cyano-3,4-dihydroxy-tetrahydrofuran-2-yl]methyl [(2R)-2-[(4-fluorophenyl)methoxy]-3-octadecoxy-propyl] hydrogen phosphate], the EC50 in series [1] (read-out: RSV EC50, Table 4) worked out at 402 nM; with SARS-CoV-2 (setting [3]), 1200 nM.

With `CCCCCCCCCCCCCCCCOC[C@H](COP(=O)(O)OC[C@H]1O[C@@](C#N)(c2ccc3c(N)ncnn23)[C@H](O)[C@@H]1O)OCc1cc(F)cc(C#N)c1` [Example 119, [(2R,3S,4R,5R)-5-(4-Aminopyrrolo[2,1-f][1,2,4]triazin-7-yl)-5-cyano-3,4-dihydroxy-tetrahydrofuran-2-yl]methyl [(2R)-2-[(3-cyano-5-fluoro-phenyl)methoxy]-3-hexadecoxy-propyl] hydrogen phosphate], in series [1] (read-out: RSV EC50, Table 4), the EC50 was 30 nM. For the same compound, half-maximal cytotoxicity in “MT4 cytotoxicity (CC50)” (MT4 CC50, Table 4) (CC50) was put at 404 nM.

In the case of `CCCCCCCCCCCCCCCCCCCCOC[C@H](COP(=O)(O)OC[C@H]1O[C@@](C#N)(c2ccc3c(N)ncnn23)[C@H](O)[C@@H]1O)OCc1cc(F)cc(C#N)c1` [Example 125, ((2R,3S,4R,5R)-5-(4-aminopyrrolo[2,1-f][1,2,4]triazin-7-yl)-5-cyano-3,4-dihydroxytetrahydrofuran-2-yl)methyl ((R)-2-((3-cyano-5-fluorobenzyl)oxy)-3-(icosyloxy)propyl) hydrogen phosphate], in series [1] (read-out: RSV EC50, Table 4), the EC50 is 129 nM. The same compound returned a 50% cytotoxic concentration (CC50) in the series “MT4 cytotoxicity (CC50)” (MT4 CC50, Table 4) of 2080 nM.

As for `CCCCCCCC/C=C\CCCCCCCCOC[C@H](COP(=O)(O)OC[C@H]1O[C@@](C#N)(c2ccc3c(N)ncnn23)[C@H](O)[C@@H]1O)OCc1cc(F)cc(C#N)c1` [Example 128, ((2R,3S,4R,5R)-5-(4-aminopyrrolo[2,1-f][1,2,4]triazin-7-yl)-5-cyano-3,4-dihydroxytetrahydrofuran-2-yl)methyl ((R)-2-((3-cyano-5-fluorobenzyl)oxy)-3-(((Z)-octadec-9-en-1-yl)oxy)propyl) hydrogen phosphate], the EC50 in series [1] (read-out: RSV EC50, Table 4) is 2 nM. In “MT4 cytotoxicity (CC50)” (MT4 CC50, Table 4), this compound registered a CC50 of 730 nM.

Source of the values: patent publication US12030904B2 (priority 2020, dated 2024).
